In ChEMBL document CHEMBL2010767, “Agonists for the Chemokine Receptor CXCR4” (ACS Med Chem Lett, 2011) one finds Activity and IC50 data, which are given here for three molecules.

Calls of active or inactive are those of the source. The calls are words filed in the database; no cut-off is given here.

Test [1] concerns the target T1, C-X-C chemokine receptor type 4 (Homo sapiens, UniProt P61073). The experiment in a line: Antagonist activity at CXCR4 receptor in human REH cells assessed as inhibition of SDF-1alpha-induced chemotactic migration after 3 hrs. Format: functional, cell-based.
Test [2] has as its target T1, C-X-C chemokine receptor type 4. Kind of test: Displacement of [125I]-SDF-1alpha from human CXCR4 receptor expressed in HEK293 cells after 1 hr by gamma counting. Format: cell-based.
For test [3] the target is unchanged. Kind of test: Agonist activity at CXCR4 receptor in human REH cells assessed as induction of chemotactic migration at 10 to 100 nM after 3 hrs. In kind it is functional, cell-based.
The target is the same in test [4]. The experiment in a line: Agonist activity at CXCR4 receptor in human REH cells assessed as induction of chemotactic migration at 1 uM after 3 hrs. Format: functional, cell-based.

T1 sequence (P61073 whole entry): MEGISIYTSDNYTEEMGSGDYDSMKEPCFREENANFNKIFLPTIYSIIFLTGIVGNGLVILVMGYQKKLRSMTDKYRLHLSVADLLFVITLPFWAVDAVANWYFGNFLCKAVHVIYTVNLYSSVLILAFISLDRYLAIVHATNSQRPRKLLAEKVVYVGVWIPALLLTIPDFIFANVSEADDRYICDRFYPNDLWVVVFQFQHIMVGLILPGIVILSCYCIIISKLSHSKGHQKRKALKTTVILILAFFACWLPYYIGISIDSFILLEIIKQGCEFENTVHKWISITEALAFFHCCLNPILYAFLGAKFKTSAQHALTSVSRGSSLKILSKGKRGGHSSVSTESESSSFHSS

As to `CC(C)C[C@H](NC(=O)[C@H](CO)NC(=O)[C@@H](NC(=O)[C@@H]1CCCN1C(=O)[C@@H](N)CCCCN)C(C)C)C(=O)N[C@@H](CO)C(=O)N[C@@H](Cc1ccc(O)cc1)C(=O)NCCCC[C@@H]1NC(=O)[C@H](CCCNC(=N)N)NC(=O)[C@H](Cc2ccc(O)cc2)NC(=O)[C@@H]2CCCN2C(=O)[C@@H](CCCCN)NC(=O)[C@H](CCCCN)NC(=O)[C@H](CCCNC(=N)N)NC(=O)[C@H](Cc2ccc(O)cc2)NC(=O)[C@@H](NC(=O)[C@H](Cc2ccc3ccccc3c2)NC(=O)[C@H](CCCNC(=N)N)NC(=O)[C@@H](N)CCCNC(=N)N)CSSC[C@@H](C(=O)N[C@@H](CCCNC(=N)N)C(=O)O)CC1=O`, the result in test [1] was Active. Moreover, the IC50 in test [2] amounted to 2.22 nM.
For the molecule `CC(C)C[C@H](NC(=O)[C@H](CO)NC(=O)[C@@H](NC(=O)[C@@H]1CCCN1C(=O)[C@@H](N)CCCCN)C(C)C)C(=O)N[C@@H](CO)C(=O)N[C@@H](Cc1ccc(O)cc1)C(=O)N[C@@H](CCCNC(=N)N)C(=O)N[C@@H](CO)C(=O)N1CCC[C@H]1C(=O)NCCCC[C@H](NC(=O)[C@@H]1CSSC[C@H](NC(=O)[C@H](Cc2ccc3ccccc3c2)NC(=O)[C@H](CCCNC(=N)N)NC(=O)[C@@H](N)CCCNC(=N)N)C(=O)N[C@@H](Cc2ccc(O)cc2)C(=O)N[C@@H](CCCNC(=N)N)C(=O)N[C@@H](CCCCN)C(=O)N[C@H](CCCCN)C(=O)N2CCC[C@H]2C(=O)N[C@@H](Cc2ccc(O)cc2)C(=O)N[C@@H](CCCNC(=N)N)C(=O)N[C@@H](CCCNC(=N)N)C(=O)C1)C(=O)O`, the outcome in test [3] was Active. Also, the IC50 in test [2] stood at 9.57 nM.
Take `CC(C)C[C@H](NC(=O)[C@H](CO)NC(=O)[C@@H](NC(=O)[C@@H]1CCCN1C(=O)[C@@H](N)CCCCN)C(C)C)C(=O)N[C@@H](CO)C(=O)N[C@@H](Cc1ccc(O)cc1)C(=O)NCCCC[C@@H](NC(=O)[C@@H]1CSSC[C@H](NC(=O)[C@H](Cc2ccc3ccccc3c2)NC(=O)[C@H](CCCNC(=N)N)NC(=O)[C@@H](N)CCCNC(=N)N)C(=O)N[C@@H](Cc2ccc(O)cc2)C(=O)N[C@@H](CCCNC(=N)N)C(=O)N[C@@H](CCCCN)C(=O)N[C@H](CCCCN)C(=O)N2CCC[C@H]2C(=O)N[C@@H](Cc2ccc(O)cc2)C(=O)N[C@@H](CCCNC(=N)N)C(=O)N[C@@H](CCCNC(N)=O)C(=O)C1)C(=O)O`: in test [4], the result was Active. The same molecule gave an IC50 in test [2] (hek293) of 170 nM.

As usually defined, the IC50 is the midpoint of a concentration-inhibition curve. A high value points to weaker potency.
